From ChEMBL document CHEMBL3351749, “Synthesis, in vitro antimicrobial and cytotoxic activities of new carbazole derivatives of ursolic acid” (Bioorg Med Chem Lett, 2015)
Values after ≈ are worked out from the molar mass of the structure shown.

Legend:
[1] = Cytotoxicity against human […] cells assessed as cell survival after 48 hrs by MTT assay; format: functional, cell-based
Escherichia coli = experiment: Antimicrobial activity against Escherichia coli CGMCC1.1571 after 24 hrs by modified microdilution method; format: functional; settings: CGMCC1.1571, 24 h
Candida albicans = experiment: Antimicrobial activity against Candida albicans CGMCC2.2086 after 48 hrs by modified microdilution method; format: functional; settings: CGMCC2.2086, 48 h
Pseudomonas fluorescens = experiment: Antimicrobial activity against Pseudomonas fluorescens CGMCC1.1828 after 24 hrs by modified microdilution method; format: functional; settings: CGMCC1.1828, 24 h
HepG2 = experiment: Cytotoxicity against human HepG2 cells assessed as cell survival after 48 hrs by MTT assay; format: functional, cell-based; settings: HepG2, 48 h
Aspergillus niger = experiment: Antimicrobial activity against Aspergillus niger CGMCC3.316 after 48 hrs by modified microdilution method; format: functional; settings: CGMCC3.316, 48 h
Bacillus subtilis = experiment: Antimicrobial activity against Bacillus subtilis CGMCC1.1162 after 24 hrs by modified microdilution method; format: functional; settings: CGMCC1.1162, 24 h
Staphylococcus aureus = experiment: Antimicrobial activity against Staphylococcus aureus CGMCC1.1361 after 24 hrs by modified microdilution method; format: functional; settings: CGMCC1.1361, 24 h
Candida tropicalis = experiment: Antimicrobial activity against Candida tropicalis CGMCC2.3967 after 48 hrs by modified microdilution method; format: functional; settings: CGMCC2.3967, 48 h
[2] = Cytotoxicity against human LO2 cells assessed as cell survival after 48 hrs by MTT assay; format: cell-based; settings: L02, 48 h

SMILES	IC50 [1] [µM]	MIC (Escherichia coli) [µg/mL]	MIC (Candida albicans) [µg/mL]	MIC (Pseudomonas fluorescens) [µg/mL]	IC50 (HepG2) [µM]	MIC (Aspergillus niger) [µg/mL]	MIC (Bacillus subtilis) [µg/mL]	MIC (Staphylococcus aureus) [µg/mL]	MIC (Candida tropicalis) [µg/mL]	IC50 [2] [µM]
C[C@H]1[C@H](C)CC[C@]2(C(=O)O)CC[C@]3(C)C(=CC[C@@H]4[C@@]5(C)Cc6c([nH]c7ccccc67)C(C)(C)[C@@H]5CC[C@]43C)[C@H]12	40.4	15.6 (≈ 29.6 µM)	> 100	15.6 (≈ 29.6 µM)	25.8	> 100	15.6 (≈ 29.6 µM)	31.2 (≈ 59.1 µM)	> 100	–
C[C@H]1[C@H](C)CC[C@]2(C(=O)O)CC[C@]3(C)C(=CC[C@@H]4[C@@]5(C)Cc6c([nH]c7ccc(F)cc67)C(C)(C)[C@@H]5CC[C@]43C)[C@H]12	16.3	15.6 (≈ 28.6 µM)	62.5 (≈ 115 µM)	31.2 (≈ 57.2 µM)	15.2	62.5 (≈ 115 µM)	15.6 (≈ 28.6 µM)	15.6 (≈ 28.6 µM)	> 100	–
Cc1ccc2[nH]c3c(c2c1)C[C@]1(C)[C@H]2CC=C4[C@@H]5[C@@H](C)[C@H](C)CC[C@]5(C(=O)NCCCN(C)C)CC[C@@]4(C)[C@]2(C)CC[C@H]1C3(C)C	1.08	31.2 (≈ 49.8 µM)	> 100	31.2 (≈ 49.8 µM)	1.26	62.5 (≈ 99.8 µM)	15.6 (≈ 24.9 µM)	31.2 (≈ 49.8 µM)	> 100	5.75
C[C@H]1[C@H](C)CC[C@]2(C(=O)O)CC[C@]3(C)C(=CC[C@@H]4[C@@]5(C)CCC(=O)C(C)(C)[C@@H]5CC[C@]43C)[C@H]12 [URSONIC ACID]	> 100	31.2 (≈ 68.6 µM)	> 100	62.5 (≈ 137 µM)	> 100	> 100	31.2 (≈ 68.6 µM)	62.5 (≈ 137 µM)	> 100	–
